Values joined by “and” are separate entries in the source; they are usually repeats but may differ in a detail not shown here. Identical values can stand only once.
Experiments:
[1] = system: human Nav1.2, Nav1.4, Nav1.5, Nav1.7; experiment: in vitro; type: cell-based; details: human; all Nav subtypes, Ipeak and Ilate; read-out: pI/EC50, range over Nav currents
Experimental: (§1) Functional modulation of recombinant human voltage-gated sodium (Nav) channels exposed to marine PbTx-3 and brevenal was assessed by automated patch-clamp electrophysiology. Neuronal Nav1.2 (CNS) and Nav1.7 (PNS), in addition to muscle Nav1.4 (skeletal) and Nav1.5 (cardiac) sodium channels, were patch-clamped in mammalian cells. Whole-cell currents mediated by human Nav1.4 and Nav1.7 overexpressed in CHO-K1 cells, as well as human Nav1.2 and Nav1.5 overexpressed in HEK293 cells, were recorded at room temperature. Currents were elicited by 25 ms test pulses to −20 mV from a holding potential (Vh) of −120 mV, delivered for 5 min at 0.1 Hz, after each full-bath solution exchange to allow current amplitude and kinetics to reach a steady state.
(§2) Nav currents were evoked by a 25 ms test pulse to −20 mV (Vh = −120 mV; 0.1 Hz). Extracellular drug applications were performed by exchanging the whole bath with the test compounds diluted in extracellular solution to the required concentration during constant monitoring (25 ms, −20 mV, Vh −120 mV, 0.1 Hz). The control solution included 0.1% ethanol to account for non-specific vehicle effects. For concentration–response curves (CRCs), compounds at incrementally higher concentrations were applied to the extracellular bath solution and allowed to equilibrate for 5 min. The average current amplitude from the last five test pulses at each concentration was used for analysis.
(§3) APC data were analyzed using PatchMaster (Nanion) and Igor (WaveMetrics, Portland, OR, USA) software. Nav peak and late currents measured in the presence of increasing amounts of PbTx-3 and brevenal were divided by the current in control conditions (ICtr) to generate CRCs. […]

[2] = system: human Nav channels (Nav1.2, Nav1.4, Nav1.5, Nav1.7); experiment: in vitro; type: cell-based
Experimental: as §1, §2, §3

[3] = system: nodose ganglion neuron Navs; details: cited from earlier work

C=C/C=C\CC[C@H]1O[C@H]2CC[C@@]3(C)O[C@H]4[C@@H](O)C[C@@]5(C)O[C@@H](CC/C=C(C)/C(C)=C/C=O)[C@@H](C)C[C@H]5O[C@@H]4C[C@@H]3O[C@@H]2CC[C@@]1(C)O [Brevenal]
EC50 [1]: 0.01 to 10 µM

C=C(CO)C[C@@H]1C[C@H](O)[C@]2(C)OC3CC4OC5C[C@]6(C)O[C@]7(C)CCC8OC9C[C@]%10(C)OC%11C(C)=CC(=O)OC%11CC%10OC9C[C@@H](C)C8OC7CC6O[C@@]5(C)C/C=C\C4OC3CC2O1 (some centres unmarked) [PbTx-3, Brevetoxin PbTx-3]
fold enhancement of late currents mediated by Nav1.2, Nav1.4, and Nav1.5 [2]: 2–4 fold | orders of magnitude more potent than brevenal at modulating Nav currents [2]: 1–3 orders of magnitude | fold increase in the mean apparent single-channel open time [3]: ~ 2 fold | lower conductance (sub-conductance) levels of PbTx-3-modified nodose Navs [3]: 10.7 pS and 21.2 pS

Source: paper PMC10382042, “Brevetoxin versus Brevenal Modulation of Human Nav1 Channels” (Marine Drugs, 2023)
